The results in this text go back to US9096615B2, “Bridged bicyclic amino thiazine dioxide compounds as inhibitors of beta-secretase and methods of use thereof” (AMGEN INC., priority 2013, dated 2015).

The target in one assay is BACE1 (Homo sapiens, UniProt P56817). Briefly: In vitro enzymatic BACE FRET assay. Type of assay: biochemical. As to the method:
In Vitro Enzymatic BACE FRET (Fluorescence Resonance Energy Transfer) Assay
Enzyme Assay Data in the Example Table I
The assay buffer used in this screen is 0.05 M acetate, pH 4.2, 10% DMSO final, 100 uM genapol (which is a nonionic detergent, below its Critical Micelle Concentration). The Beta Secretase enzyme (0.2 nM) is pre-incubated for one hour with inhibitors, typically in about 1 uL of DMSO according to a serial dilution, are added thereto. This assay is effectively started by the addition of FRET substrate (50 nM) and the combination is incubated for one hour. The FRET assay is terminated with by addition of Tris buffer, which raises the pH to neutrality, and the fluorescence is determined. The FRET substrate is a peptide with commercially available fluorophore and quencher, on opposite sides of the BACE cleavage site. Proteolytic cleavage of the FRET substrate releases quenching of fluorescence (excitation 488 nm and […]).

Assay [1] has as its system Aβ40 in conditioned medium of cells stably expressing Amyloid Precursor Protein (APP). Briefly: In vitro BACE cell-based assay (HEK cell assay, Aβ40 sandwich ELISA). To be noted: Homo sapiens, HEK293. As to the method: In Vitro BACE Cell-Based Assay
The cell-based assay measures inhibition or reduction of Aβ40 in conditioned medium of test compound treated cells expressing amyloid precursor protein.
Cells stably expressing Amyloid Precursor Protein (APP) were plated at a density of 40K cells/well in 96 well plates (Costar). The cells were cultivated for 24 hours at 37° C. and 5% CO2 in DMEM supplemented with 10% FBS. The test compounds were then added to cells in 10-point dose response concentrations with the starting concentration being either 100 μM or 10 μM. The compounds were diluted from stock solutions in DMSO and the final DMSO concentration of the test compounds on cells was 0.1%. After 24 h of incubation with the test compounds the supernatant conditioned media was collected and the Aβ 40 levels were determined using a sandwich ELISA. The IC50 of the compound was calculated from the percent of control or percent inhibition of Aβ 40 as a function of the concentration of the test compound.
The sandwich ELISA to detect Aβ 40 was performed in 96 well microtiter plates, which were pre-treated with goat anti-rabbit IgG (Pierce). The capture and detecting antibody pair that were used to detect Aβ 40 from cell supernatants were affinity purified pAb40 (Biosource) and biotinylated 6E10 (Signet Labs Inc.), respectively. The optimal concentration for the pAb40 antibody was 3 μg/ml in Superblock/TBS (Pierce) that was supplemented with 0.05% Tween 20 (Sigma). Optimal concentration for the detection antibody 6E10-biotinylated was 0.5 μg/ml in Superblock/TBS (Pierce) that had been supplemented with 2% normal goat serum and 2% normal mouse serum.
Cellular supernatants were incubated with the capture antibody for 3 h at 4° C., followed by 3 wash steps in TBS-tween (0.05%). The detecting antibody incubation was for 2 h at 4° C., again followed by the wash steps as described previously. The final readout of the ELISA is Time-Resolved Fluorescence (counts per minute) using Delfia reagents Streptavidin-Europium and Enhancement solutions (Perkin Elmer) and the Victor 2 multilabel counter (Perkin Elmer).
Background: In an ELISA, binding on a coated surface is turned into a signal by an enzyme label.

The target of a further assay is T1, Cathepsin D (Cat D) (Homo sapiens, UniProt P07339).
T1 construct: made in house; host or cells: CHO cells
Briefly: In vitro enzymatic Cathepsin D (Cat D) FRET assay. In kind it is biochemical. To be noted: read-out: CatD IC50. As to the method: In Vitro Enzymatic Cathepsin D (Cat D) FRET (Fluorescence Resonance Energy Transfer) Assay
Recombinant Cat D was expressed in CHO cells. The assay buffer for CathepsinD is 0.05 M citrate pH 3.5, 10% DMSO final, 5 mM CHAPS. The Cat D enzyme (9 nM) is pre-incubated for one hour with inhibitors, typically in about 1 uL of DMSO according to a serial dilution, is added thereto. The assays are effectively started by the addition of different FRET substrates (20 nM for Cat D) and the combination is incubated for one hour. The FRET assay is terminated with by addition of Tris buffer, which raises the pH to neutrality, and the fluorescence is determined. The FRET substrate is a peptide with commercially available fluorophore and quencher, on opposite sides of the BACE cleavage site. The Cat D substrate peptide sequence is based on sequence #1 of Table 1 from Gulnik et al. FEBS Letters v413 p 379-384 1997. Proteolytic cleavage of the FRET substrate releases quenching of fluorescence (Cat D excitation 500 nm and emission 580 nm). […]
Where available, the in-vitro Cat D FRET assay data for each of the Examples, conducted by the first procedure, is provided in Tables 1 and 3. For example, the compound of example 28 has a Cat D IC50 value of >400 uM.

[2] abbreviates: read-out: BACE1 FRET assay IC50.
Setting [3] is: Aβ40, 24 h incubation, read-out: HEK cell assay IC50.
[4] abbreviates: average IC50, read-out: BACE1 Enzyme assay IC50.
Setting [5] is: average IC50, read-out: BACE1 cell assay IC50.

Where two headings read alike, the source gives them in different places.

T1 sequence (P07339 65-412, species assumed): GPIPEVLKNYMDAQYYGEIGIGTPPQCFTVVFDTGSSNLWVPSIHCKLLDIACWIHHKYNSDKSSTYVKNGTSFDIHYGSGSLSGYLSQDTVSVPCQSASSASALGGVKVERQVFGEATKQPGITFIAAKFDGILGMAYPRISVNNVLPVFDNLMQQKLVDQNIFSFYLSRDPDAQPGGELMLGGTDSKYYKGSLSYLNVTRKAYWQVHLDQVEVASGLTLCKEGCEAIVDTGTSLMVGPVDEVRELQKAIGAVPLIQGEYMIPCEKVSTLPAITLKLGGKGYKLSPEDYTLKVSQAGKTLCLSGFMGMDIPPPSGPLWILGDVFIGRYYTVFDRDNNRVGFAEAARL
BACE1, sequence (P56817 46-501, species assumed): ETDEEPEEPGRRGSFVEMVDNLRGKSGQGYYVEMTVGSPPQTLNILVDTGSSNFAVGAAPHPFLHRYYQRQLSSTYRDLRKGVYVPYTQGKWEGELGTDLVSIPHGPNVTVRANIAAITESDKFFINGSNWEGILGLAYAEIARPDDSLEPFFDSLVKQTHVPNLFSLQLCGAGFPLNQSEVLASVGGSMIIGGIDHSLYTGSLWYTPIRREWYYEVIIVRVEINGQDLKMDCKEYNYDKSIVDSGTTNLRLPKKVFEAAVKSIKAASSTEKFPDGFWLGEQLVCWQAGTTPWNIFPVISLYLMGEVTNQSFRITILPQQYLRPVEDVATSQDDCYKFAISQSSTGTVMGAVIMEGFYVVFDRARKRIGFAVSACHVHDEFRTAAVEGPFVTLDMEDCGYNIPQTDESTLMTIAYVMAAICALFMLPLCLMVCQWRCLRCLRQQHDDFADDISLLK

As to `Cc1cc(Cl)cnc1C(=O)Nc1ccc(F)c([C@@]2(C)N=C(N)[C@@]3(C)CC[C@]2(C)S3(=O)=O)c1` [Example 31, N-(3-((1S,2R,5R)-4-amino-1,2,5-trimethyl-8,8-dioxido-8-thia-3-azabicyclo[3.2.1]oct-3-en-2-yl)-4-fluorophenyl)-5-chloro-3-methylpicolinamide], the IC50 (in general, the concentration needed to halve the response being measured) on BACE1 (setting [2]) was 4 nM; in assay [1] (setting [3]) it was 12 nM; on Cathepsin D (Cat D), 56.9 µM.

Take `Cc1cc(Cl)cnc1C(=O)Nc1ccc(F)c([C@@]2(C)N=C(N)[C@]3(C)CC[C@@]2(C)S3(=O)=O)c1` [Example 32, N-(3-((1R,2R,5S)-4-amino-1,2,5-trimethyl-8,8-dioxido-8-thia-3-azabicyclo[3.2.1]oct-3-en-2-yl)-4-fluorophenyl)-5-chloro-3-methylpicolinamide]: the IC50 on BACE1 (setting [2]) was 7 nM; in assay [1] (setting [3]) it was 17 nM; at Cathepsin D (Cat D), 131 µM.

On to `Cc1cc(Cl)cnc1C(=O)Nc1ccc(F)c([C@@]2(C)N=C(N)[C@H]3CC[C@@H]2S3(=O)=O)c1` [Example 33, N-(3-((1S,2R,5R)-4-amino-2-methyl-8,8-dioxido-8-thia-3-azabicyclo[3.2.1]oct-3-en-2-yl)-4-fluorophenyl)-5-chloro-3-methyl-2-pyridinecarboxamide], for which the results for the IC50 (at BACE1 (setting [2]); in assay [1] (setting [3]); on Cathepsin D (Cat D)) were 8460 nM, greater than 15600 nM and 1540 µM, respectively.

Regarding `Cc1cc(Cl)cnc1C(=O)Nc1ccc(F)c([C@]2(C)N=C(N)[C@]3(C)CC[C@H]2S3(=O)=O)c1` [Example 34, N-(3-((1R,2S,5S)-4-amino-2,5-dimethyl-8,8-dioxido-8-thia-3-azabicyclo[3.2.1]oct-3-en-2-yl)-4-fluorophenyl)-5-chloro-3-methyl-2-pyridinecarboxamide], the IC50 at BACE1 (setting [2]) stood at 4540 nM; in assay [1] (setting [3]) it was 2030 nM; at Cathepsin D (Cat D), 4310 µM.

On to `COc1cnc2c(Nc3ccc(F)c([C@@]4(C)N=C(N)[C@@]5(C)CC[C@@H]4S5(=O)=O)c3)ncc(F)c2c1` [Example 36, N-(3-((1S,2R,5R)-4-amino-2,5-dimethyl-8,8-dioxido-8-thia-3-azabicyclo[3.2.1]oct-3-en-2-yl)-4-fluorophenyl)-5-fluoro-3-methoxy-1,7-naphthyridin-8-amine], for which the IC50 came out at 2 nM at BACE1 (setting [2]), 6 nM in assay [1] (setting [3]) and 5490 µM at Cathepsin D (Cat D).

On to `COc1cnc(C(=O)Nc2ccc(F)c([C@@]3(C)N=C(N)[C@@]4(C)CC[C@@H]3S4(=O)=O)c2)cn1` [Example 37, N-(3-((1S,2R,5R)-4-amino-2,5-dimethyl-8,8-dioxido-8-thia-3-azabicyclo[3.2.1]oct-3-en-2-yl)-4-fluorophenyl)-5-methoxy-2-pyrazinecarboxamide], for which the IC50 at BACE1 (setting [2]) was 4 nM; in assay [1] (setting [3]), 1 nM; at Cathepsin D (Cat D) it was 1170 µM.

For `C[C@]1(c2cc(Nc3ncc(F)c4cc(O)cnc34)ccc2F)N=C(N)[C@@]2(C)CC[C@@H]1S2(=O)=O` [Example 39, (1R,4R,5S)-2-amino-4-(2-fluoro-5-((5-fluoro-3-hydroxy-1,7-naphthyridin-8-yl)amino)phenyl)-1,4-dimethyl-8-thia-3-azabicyclo[3.2.1]oct-2-ene 8,8-dioxide], the IC50 stood at 1 nM on BACE1 (setting [4]); 9 nM in assay [1] (setting [5]); 191 µM on Cathepsin D (Cat D) (average IC50, first procedure).

In the case of `Cc1cc(C(F)(F)F)cnc1C(=O)Nc1ccc(F)c([C@@]2(C)N=C(N)[C@@]3(C)CC[C@]2(C)S3(=O)=O)c1` [Example 48, N-(3-((1S,2R,5R)-4-amino-1,2,5-trimethyl-8,8-dioxido-8-thia-3-azabicyclo[3.2.1]oct-3-en-2-yl)-4-fluorophenyl)-3-methyl-5-(trifluoromethyl)-2-pyridinecarboxamide], the IC50 at BACE1 (setting [4]) came to 11 nM; in assay [1] (setting [5]), 4 nM; on Cathepsin D (Cat D) (average IC50, first procedure), 54.1 µM.

Consider `Cc1cc(C(F)(F)F)cnc1C(=O)Nc1ccc(F)c([C@@]2(C)N=C(N)[C@]3(C)CC[C@@]2(C)S3(=O)=O)c1` [Example 49, N-(3-((1R,2R,5S)-4-amino-1,2,5-trimethyl-8,8-dioxido-8-thia-3-azabicyclo[3.2.1]oct-3-en-2-yl)-4-fluorophenyl)-3-methyl-5-(trifluoromethyl)-2-pyridinecarboxamide], for which the IC50 at BACE1 (setting [4]) is 11 nM; in assay [1] (setting [5]), 4 nM; at Cathepsin D (Cat D) (average IC50, first procedure) it was 66.6 µM.

In the case of `C[C@]12CC[C@](C)(C(N)=N[C@]1(C)c1cc(Nc3ncc(F)c4cc(Cl)cnc34)ccc1F)S2(=O)=O` [Example 50, N-(3-((1S,2R,5R)-4-amino-1,2,5-trimethyl-8,8-dioxido-8-thia-3-azabicyclo[3.2.1]oct-3-en-2-yl)-4-fluorophenyl)-3-chloro-5-fluoro-1,7-naphthyridin-8-amine], the IC50 at BACE1 (setting [4]) came to 4 nM; in assay [1] (setting [5]) it was 280 nM; at Cathepsin D (Cat D) (average IC50, first procedure) it was 12 µM.

Consider `C[C@]12CC[C@](C)([C@@](C)(c3cc(Nc4ncc(F)c5cc(Cl)cnc45)ccc3F)N=C1N)S2(=O)=O` [Example 51, N-(3-((1R,2R,5S)-4-amino-1,2,5-trimethyl-8,8-dioxido-8-thia-3-azabicyclo[3.2.1]oct-3-en-2-yl)-4-fluorophenyl)-3-chloro-5-fluoro-1,7-naphthyridin-8-amine], for which the IC50 at BACE1 (setting [4]) was determined as 11 nM; in assay [1] (setting [5]), 381 nM; at Cathepsin D (Cat D) (average IC50, first procedure), 21.5 µM.

For `C[C@]1(c2cc(NC(=O)c3ccc(C#CC4CC4)cn3)ccc2F)N=C(N)[C@@]2(C)CC[C@@H]1S2(=O)=O` [Example 64, N-(3-((1S,2R,5R)-4-amino-2,5-dimethyl-8,8-dioxido-8-thia-3-azabicyclo[3.2.1]oct-3-en-2-yl)-4-fluorophenyl)-5-(cyclopropylethynyl)-2-pyridinecarboxamide], the IC50 on BACE1 (setting [4]) was determined as 1 nM; in assay [1] (setting [5]), 5 nM; on Cathepsin D (Cat D) (average IC50, first procedure), 470 µM.

As to `C[C@]12CC[C@H]([C@@](C)(c3cc(NC(=O)c4ccc(C#CC5CC5)cn4)ccc3F)N=C1N)S2(=O)=O` [Example 65, N-(3-((1R,2R,5S)-4-amino-2,5-dimethyl-8,8-dioxido-8-thia-3-azabicyclo[3.2.1]oct-3-en-2-yl)-4-fluorophenyl)-5-(cyclopropylethynyl)-2-pyridinecarboxamide], the IC50 was 7 nM at BACE1 (setting [4]); 16 nM in assay [1] (setting [5]); greater than 400 µM at Cathepsin D (Cat D) (average IC50, first procedure).

In the case of `COc1cnc(C(=O)Nc2ccc(F)c([C@@]3(C)N=C(N)[C@]4(C)CC[C@H]3S4(=O)=O)c2)cn1` [Example 66, N-(3-((1R,2R,5S)-4-amino-2,5-dimethyl-8,8-dioxido-8-thia-3-azabicyclo[3.2.1]oct-3-en-2-yl)-4-fluorophenyl)-5-methoxy-2-pyrazinecarboxamide], the IC50 was 70 nM on BACE1 (setting [4]); 18 nM in assay [1] (setting [5]); greater than 400 µM at Cathepsin D (Cat D) (average IC50, first procedure).
